Assay results taken from the NIST ThermoML archive (doi:10.1021/acs.jced.6b00606).

Tests used:
[1] = excess molar enthalpy (molar enthalpy of mixing); xn = mol fraction of the nth substance listed; details: 308.15 K, 100 kPa, Liquid, Calvet calorimetry
[2] = molar heat capacity at constant pressure; xn = mol fraction of the nth substance listed; details: 100 kPa, Liquid

O=C1CCCCC1 [cyclohexanone] + C1COCCO1
[1]
Details | excess molar enthalpy [kcal/mol]
x2 = 0.0792 | 0.0195
x2 = 0.1286 | 0.0298
x2 = 0.1749 | 0.0381
x2 = 0.2236 | 0.0458
x2 = 0.2743 | 0.0526
x2 = 0.3289 | 0.0587
x2 = 0.3729 | 0.0627
x2 = 0.4298 | 0.0666
x2 = 0.4715 | 0.0686
x2 = 0.5242 | 0.07
x2 = 0.5735 | 0.0701
x2 = 0.6199 | 0.0691
x2 = 0.7182 | 0.0627
x2 = 0.7628 | 0.0576
x2 = 0.8193 | 0.0489
x2 = 0.8672 | 0.0394
x2 = 0.9173 | 0.0269

molar heat capacity at constant pressure [J/K/mol], [2]
Details | 293.15 K | 298.15 K | 303.15 K | 308.15 K
x2 = 0.0799 | 173.61 | 175.65 | 177.71 | 179.75
x2 = 0.1351 | 171.94 | 173.94 | 175.96 | 177.96
x2 = 0.1965 | 170.17 | 172.12 | 174.08 | 176.03
x2 = 0.2378 | 169.01 | 170.93 | 172.86 | 174.77
x2 = 0.2874 | 167.66 | 169.54 | 171.43 | 173.28
x2 = 0.3258 | 166.66 | 168.49 | 170.34 | 172.17
x2 = 0.3642 | 165.66 | 167.46 | 169.27 | 171.07
x2 = 0.4195 | 164.26 | 166.02 | 167.78 | 169.52
x2 = 0.4625 | 163.21 | 164.92 | 166.62 | 168.33
x2 = 0.5061 | 162.15 | 163.82 | 165.49 | 167.15
x2 = 0.5543 | 161.01 | 162.63 | 164.25 | 165.88
x2 = 0.6023 | 159.9 | 161.47 | 163.05 | 164.62
x2 = 0.6487 | 158.83 | 160.36 | 161.9 | 163.44
x2 = 0.6946 | 157.82 | 159.29 | 160.78 | 162.27
x2 = 0.7412 | 156.79 | 158.22 | 159.66 | 161.12
x2 = 0.7845 | 155.87 | 157.25 | 158.66 | 160.06
x2 = 0.8398 | 154.71 | 156.04 | 157.39 | 158.74
x2 = 0.8975 | 153.56 | 154.82 | 156.1 | 157.39

O=C1CCCCCC1 [cycloheptanone] + C1COCCO1
[1]
Details | excess molar enthalpy [kcal/mol]
x2 = 0.0726 | 0.00727
x2 = 0.1258 | 0.0119
x2 = 0.1769 | 0.0154
x2 = 0.2252 | 0.0187
x2 = 0.2786 | 0.0213
x2 = 0.3286 | 0.0234
x2 = 0.3746 | 0.0247
x2 = 0.4282 | 0.0255
x2 = 0.4712 | 0.0258
x2 = 0.5232 | 0.0254
x2 = 0.5725 | 0.0247
x2 = 0.6235 | 0.0233
x2 = 0.6762 | 0.0212
x2 = 0.7256 | 0.0191
x2 = 0.7716 | 0.0166
x2 = 0.8125 | 0.0141
x2 = 0.8682 | 0.0101
x2 = 0.9129 | 0.007

molar heat capacity at constant pressure [J/K/mol], [2], Extra sensitive DSC
Details | 293.15 K | 298.15 K | 303.15 K | 308.15 K
x2 = 0.0943 | 199.36 | 200.68 | 202.21 | 203.95
x2 = 0.1587 | 198.02 | 199.53 | 201.25 | 203.14
x2 = 0.2016 | 197.04 | 198.63 | 200.42 | 202.4
x2 = 0.2574 | 195.59 | 197.23 | 199.23 | 201.2
x2 = 0.3025 | 194.28 | 196 | 197.99 | 200.03
x2 = 0.3412 | 193.02 | 194.78 | 196.83 | 198.81
x2 = 0.3986 | 190.94 | 192.67 | 194.91 | 196.9
x2 = 0.4215 | 189.98 | 191.84 | 194.03 | 196.02
x2 = 0.4796 | 187.51 | 189.28 | 191.5 | 193.56
x2 = 0.5213 | 185.45 | 187.35 | 189.58 | 191.52
x2 = 0.5743 | 182.67 | 184.52 | 186.79 | 188.83
x2 = 0.6142 | 180.46 | 182.26 | 184.49 | 186.55
x2 = 0.6687 | 177.12 | 178.92 | 181.02 | 183.16
x2 = 0.7149 | 174.07 | 175.86 | 177.95 | 180.03
x2 = 0.7623 | 170.7 | 172.51 | 174.5 | 176.57
x2 = 0.8169 | 166.69 | 168.4 | 170.24 | 172.25
x2 = 0.8654 | 162.9 | 164.56 | 166.21 | 168.11
x2 = 0.9149 | 158.86 | 160.38 | 161.87 | 163.59

O=C1CCCCC1 [cyclohexanone] + C1CCOCC1
[1]
Details | excess molar enthalpy [kcal/mol]
x2 = 0.0989 | 0.0098
x2 = 0.1475 | 0.014
x2 = 0.1926 | 0.017
x2 = 0.2415 | 0.0206
x2 = 0.2953 | 0.0231
x2 = 0.3416 | 0.0253
x2 = 0.3952 | 0.0268
x2 = 0.4426 | 0.0274
x2 = 0.4956 | 0.0276
x2 = 0.5425 | 0.0271
x2 = 0.5982 | 0.0257
x2 = 0.641 | 0.0244
x2 = 0.6825 | 0.0227
x2 = 0.7333 | 0.02
x2 = 0.7865 | 0.0167
x2 = 0.8359 | 0.0132
x2 = 0.8875 | 0.0093
x2 = 0.9299 | 0.00576

molar heat capacity at constant pressure [J/K/mol], [2], Extra sensitive DSC
Details | 293.15 K | 298.15 K | 303.15 K | 308.15 K
x2 = 0.0995 | 176.32 | 178.62 | 180.9 | 183.36
x2 = 0.1452 | 175.99 | 178.41 | 181.03 | 183.58
x2 = 0.1965 | 175.76 | 178.4 | 181.02 | 183.49
x2 = 0.2456 | 175.65 | 178.24 | 180.93 | 183.53
x2 = 0.2863 | 175.47 | 178.06 | 180.64 | 183.3
x2 = 0.3321 | 175.13 | 177.68 | 180.22 | 182.87
x2 = 0.3845 | 174.53 | 177.03 | 179.51 | 182.09
x2 = 0.4215 | 173.95 | 176.42 | 178.92 | 181.49
x2 = 0.4723 | 172.86 | 175.29 | 177.75 | 180.31
x2 = 0.5241 | 171.58 | 173.99 | 176.42 | 178.98
x2 = 0.5796 | 169.75 | 172.22 | 174.56 | 177.13
x2 = 0.6153 | 168.49 | 170.9 | 173.23 | 175.87
x2 = 0.6654 | 166.35 | 168.77 | 171.21 | 173.73
x2 = 0.7132 | 164.19 | 166.61 | 168.92 | 171.57
x2 = 0.7698 | 161.26 | 163.68 | 165.99 | 168.56
x2 = 0.8265 | 158.18 | 160.54 | 162.79 | 165.3
x2 = 0.8732 | 155.48 | 157.76 | 159.9 | 162.31
x2 = 0.9245 | 152.46 | 154.55 | 156.51 | 158.75
